As usually defined, the IC50 is the concentration that gives 50% inhibition. Lower therefore signals greater potency.

Data on 20 compounds can be found in patent US20210395313A1, “PEPTIDE PAC1 ANTAGONISTS” (AMGEN INC., priority 2017, published 2021).

Where a SMILES comes first, the peptide text is derived from it. Bridges are numbered along the chain shown (N, C = ends). Where no end group is shown, it is not given here.

One assay deals with T1, rat PAC1 receptor (Rattus norvegicus, UniProt P32215).
T1 construct: SHSY-5Y (human neuroblastoma cell line) and RG-2 (rat glioma cell line) cells endogenously express human and rat PAC1 receptors, respectively; endogenous in cells; host or cells: RG-2 rat glioma cells
T1 sequence (P32215 20-523): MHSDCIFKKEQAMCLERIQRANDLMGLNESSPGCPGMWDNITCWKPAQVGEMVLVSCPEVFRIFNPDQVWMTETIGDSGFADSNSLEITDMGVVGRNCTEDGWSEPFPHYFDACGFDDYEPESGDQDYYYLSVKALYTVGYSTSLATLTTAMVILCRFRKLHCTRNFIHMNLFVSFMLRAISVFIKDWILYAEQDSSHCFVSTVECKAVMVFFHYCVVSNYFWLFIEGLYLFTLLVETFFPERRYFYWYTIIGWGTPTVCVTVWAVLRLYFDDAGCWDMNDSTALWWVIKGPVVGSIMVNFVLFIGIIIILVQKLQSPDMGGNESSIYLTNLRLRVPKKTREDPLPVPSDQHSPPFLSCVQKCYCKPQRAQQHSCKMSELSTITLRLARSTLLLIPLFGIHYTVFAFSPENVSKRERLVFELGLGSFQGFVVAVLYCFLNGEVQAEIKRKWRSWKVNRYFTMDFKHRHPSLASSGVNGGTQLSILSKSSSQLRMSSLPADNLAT
Description: LANCE Ultra cAMP accumulation antagonist assay in RG-2 cells.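 Also: RG-2 rat glioma cells endogenously expressing PAC1, test peptide preincubated 30 min, then PAC1 agonist added at its EC80 for 15 min, cAMP accumulation read by LANCE Ultra.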 It counts as cell-based.

The next assay concerns the target T2, human PAC1 receptor (Homo sapiens, UniProt P41586).
T2 construct: SHSY-5Y (human neuroblastoma cell line) and RG-2 (rat glioma cell line) cells endogenously express human and rat PAC1 receptors, respectively; endogenous in cells; host or cells: SHSY-5Y human neuroblastoma cells
T2 sequence (P41586 21-468): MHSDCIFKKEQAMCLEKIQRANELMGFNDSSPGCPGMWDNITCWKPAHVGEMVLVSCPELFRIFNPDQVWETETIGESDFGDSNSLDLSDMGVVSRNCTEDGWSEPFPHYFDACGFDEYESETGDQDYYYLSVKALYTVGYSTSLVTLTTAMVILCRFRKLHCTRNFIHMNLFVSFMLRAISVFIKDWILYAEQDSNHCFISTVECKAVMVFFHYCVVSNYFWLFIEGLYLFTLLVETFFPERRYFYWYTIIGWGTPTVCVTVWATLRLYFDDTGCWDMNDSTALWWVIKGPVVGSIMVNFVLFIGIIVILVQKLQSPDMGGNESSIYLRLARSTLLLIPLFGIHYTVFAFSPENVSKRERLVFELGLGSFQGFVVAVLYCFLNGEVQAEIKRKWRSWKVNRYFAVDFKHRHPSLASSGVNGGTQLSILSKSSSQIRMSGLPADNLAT
Description: LANCE Ultra cAMP accumulation antagonist assay in SHSY-5Y cells.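 Also: inhibition of cAMP accumulation evoked by PAC1 agonist at its EC80 in SHSY-5Y cells endogenously expressing receptor, 30 min preincubation then 15 min agonist, TR-FRET readout.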 It counts as cell-based. For orientation: In TR-FRET formats the signal depends on donor and acceptor labels being close together.

With `CC[C@H](C)[C@H](NC(=O)[C@H](C)NC(=O)[C@H](CCCCN)NC(=O)[C@H](CCCNC(=N)N)NC(=O)[C@H](Cc1ccccc1)NC(=O)[C@H](CCC(N)=O)NC(=O)[C@@H]1CSSC[C@H](N)C(=O)N[C@@H](CC(=O)O)C(=O)N[C@@H](C)C(=O)N[C@@H]([C@@H](C)O)C(=O)N1)C(=O)N[C@@H](CC(=O)O)C(=O)N[C@@H](CC(=O)O)C(=O)N[C@H]1CSSC[C@@H](C(=O)N[C@@H](CCSC)C(=O)N[C@@H](CCCCN)C(=O)N[C@@H](CCC(N)=O)C(=O)N[C@@H](CCCCN)C(=O)N[C@@H](CCCCN)C(=O)N[C@@H](CCCCN)C(=O)N[C@@H](CCC(=O)O)C(=O)N[C@@H](Cc2ccccc2)C(=O)N[C@@H](CCCCN)C(=O)N[C@@H](C)C(=O)NCC(=O)N[C@@H](Cc2c[nH]cn2)C(=O)O)NC(=O)[C@H](C)NC(=O)[C@H](CCCCN)NC(=O)[C@H](Cc2ccccc2)NC(=O)[C@H](C(C)C)NC(=O)[C@H](CO)NC(=O)[C@H](CO)NC(=O)[C@H](Cc2c[nH]cn2)NC(=O)[C@H](Cc2c[nH]cn2)NC(=O)[C@H](C)NC(=O)[C@H](CCC(N)=O)NC(=O)[C@H](CCCNC(=N)N)NC(=O)[C@H](C)NC1=O` [compound 36] (H-CDATCQFRKAIDDCARQAHHSSVFKACMKQKKKEFKAGH-OH; disulfide 1-5, 14-27), the IC50 against rat PAC1 receptor and against human PAC1 receptor was 0.01 to 1 nM in each case.
As for “CDATCQFRKAIDDCYYRSRHSNVPGSVFKACMKQKKKEFKAG-NH2 (disulfide 1-5, 14-31) [compound 44]”, the results for the IC50 at rat PAC1 receptor and against human PAC1 receptor were under 0.01 nM and 0.01 to 1 nM, respectively.
In the case of “CDATCQFRKAIDDCQKQAHHSNVPGSVFKACVKQKKKEFKAG-NH2 (disulfide 1-5, 14-31) [compound 142]”, the 50% inhibitory concentration (IC50) at rat PAC1 receptor and on human PAC1 receptor was 1 to 100 nM throughout.
“CDATCQFRKAIDDCQKQAYHSNVPGNSVFKECMKQKKKEFK-NH2 (disulfide 1-5, 14-32) [compound 306]”: the IC50 against rat PAC1 receptor and at human PAC1 receptor was 1 to 100 nM in each case.
With “CDATCQFRKAIDDCQKQAHHSNVPGSVFKACMLQKKKEFKAG-NH2 (disulfide 1-5, 14-31) [compound 103]”, the values for the IC50 on rat PAC1 receptor and against human PAC1 receptor were 0.01 to 1 nM and 1 to 100 nM, respectively.
In the case of “CDATCQFRKAIDDCVRQAHHSNVPGSVFKACMKQKKKEWKAH (disulfide 1-5, 14-31) [compound 99]”, the IC50 against rat PAC1 receptor and against human PAC1 receptor was 0.01 to 1 nM throughout.
Regarding “CDATCQFRKAIDDCDRQAYHSNVPGSVFKACMKQKKKEWKAG-NH2 (disulfide 1-5, 14-31) [compound 144]”, the IC50 at rat PAC1 receptor and at human PAC1 receptor was 0.01 to 1 nM throughout.
On to `CC[C@H](C)[C@H](NC(=O)[C@H](C)NC(=O)[C@H](CCCCN)NC(=O)[C@H](CCCNC(=N)N)NC(=O)[C@H](Cc1ccccc1)NC(=O)[C@H](CCC(N)=O)NC(=O)[C@@H]1CSSC[C@H](N)C(=O)N[C@@H](CC(=O)O)C(=O)N[C@@H](C)C(=O)N[C@@H]([C@@H](C)O)C(=O)N1)C(=O)N[C@@H](CC(=O)O)C(=O)N[C@@H](CC(=O)O)C(=O)N[C@H]1CSSC[C@@H](C(=O)N[C@@H](CCSC)C(=O)N[C@@H](CCCCN)C(=O)N[C@@H](CCC(N)=O)C(=O)N[C@@H](CCCCN)C(=O)N[C@@H](CCCCN)C(=O)N[C@@H](CCCCN)C(=O)N[C@@H](CCC(=O)O)C(=O)N[C@@H](Cc2ccccc2)C(=O)N[C@@H](CCCCN)C(N)=O)NC(=O)[C@H](CCC(=O)O)NC(=O)[C@H](CCCCN)NC(=O)[C@H](Cc2ccccc2)NC(=O)[C@H](C(C)C)NC(=O)[C@H](CO)NC(=O)[C@H](CC(N)=O)NC(=O)[C@@H]2CCCN2C(=O)[C@H](C(C)C)NC(=O)[C@H](CC(N)=O)NC(=O)[C@H](CO)NC(=O)[C@H](Cc2c[nH]cn2)NC(=O)[C@H](Cc2c[nH]cn2)NC(=O)[C@H](C)NC(=O)[C@H](CCC(N)=O)NC(=O)[C@H](CCCCN)NC(=O)[C@H](CCC(N)=O)NC1=O` [compound 311] (H-CDATCQFRKAIDDCQKQAHHSNVPNSVFKECMKQKKKEFK-NH2; disulfide 1-5, 14-31), for which the IC50 was 1 to 100 nM against rat PAC1 receptor and over 100 nM on human PAC1 receptor.
In the same order, the values of “CDATCQFRKAIDDCYYRSWHSNVPGSVFKACMKQRKKRWLAG-NH2 (disulfide 1-5, 14-31) [compound 69]” are 0.01 to 1 nM and 0.01 to 1 nM.
Take “CDATCQFRKAIDDCMWFAWHSNVPGSVFKACMKQKKKEFKAG-NH2 (disulfide 1-5, 14-31) [compound 122]”: the IC50 against rat PAC1 receptor and on human PAC1 receptor was 0.01 to 1 nM throughout.
Turning to “CDATCQFRKAIDDCVKQAHHSNVPGSVFKACMKQKKKEFKAGY (disulfide 1-5, 14-31) [compound 48]”, the half-inhibitory concentration (IC50) on rat PAC1 receptor and against human PAC1 receptor was 0.01 to 1 nM each time.
As for “CDATCQFRKAIDDCAKQAHHSNVPGSVFKLCMKQKKKEFKAG-NH2 (disulfide 1-5, 14-31) [compound 18]”, the IC50 is under 0.01 nM against rat PAC1 receptor and 0.01 to 1 nM on human PAC1 receptor.
Turning to “CDATCFFRKVIDDCQKQAHHSNVPGSVFKACMKQLKKRWQAG-NH2 (disulfide 1-5, 14-31) [compound 125]”, the IC50 is 1 to 100 nM against rat PAC1 receptor and over 100 nM against human PAC1 receptor.
For “CDATCQFRKAIDDCQKQAHHSNVPGSVFKLCMKQKKKEFKAG-NH2 (disulfide 1-5, 14-31) [compound 226]”, the 50% inhibitory concentration (IC50) against rat PAC1 receptor and against human PAC1 receptor was 0.01 to 1 nM in each case.
For the compound “CDATCQFRKAIDDCYYRSWHSNVPGSVFKACMKQKKKEFKAG-NH2 (disulfide 1-5, 14-31) [compound 149]”, the IC50 on rat PAC1 receptor and against human PAC1 receptor was 0.01 to 1 nM throughout.
For the compound “CDATCQFRKAIDDCDRQAHHSNVPGSVFKACMKQKKKEWKAN (disulfide 1-5, 14-31) [compound 159]”, the IC50 on rat PAC1 receptor lay within 0.01 to 1 nM; on human PAC1 receptor, 1 to 100 nM.
For the compound “CDATCQFRKAIDDCVFWAAHSNVPGSVFKACMKQKKKEFKAG-NH2 (disulfide 1-5, 14-31) [compound 136]”, the IC50 on rat PAC1 receptor and on human PAC1 receptor was 0.01 to 1 nM throughout.
As for `CSCC[C@H](NC(=O)[C@@H]1CSSC[C@H](NC(=O)[C@H](C)NC(=O)[C@@H](NC(=O)[C@H](CC(C)C)NC(=O)CNC(=O)[C@H](CCCCN)NC(=O)[C@H](CCCNC(=N)N)NC(=O)[C@H](Cc2ccc(O)cc2)NC(=O)[C@H](CCC(N)=O)NC(=O)[C@@H]2CSSC[C@H](N)C(=O)N[C@@H](CC(=O)O)C(=O)N[C@@H](C)C(=O)N[C@@H]([C@@H](C)O)C(=O)N2)C(C)C)C(=O)N[C@@H](C)C(=O)N[C@@H](CCCNC(=N)N)C(=O)N[C@@H](CCC(N)=O)C(=O)N[C@@H](C)C(=O)N[C@@H](Cc2ccc(O)cc2)C(=O)N[C@@H](Cc2c[nH]cn2)C(=O)N[C@@H](CO)C(=O)N[C@@H](CO)C(=O)N[C@@H](C(C)C)C(=O)N[C@@H](Cc2ccccc2)C(=O)N[C@@H](CCCCN)C(=O)N[C@@H](C)C(=O)N1)C(=O)N[C@@H](CCCCN)C(=O)N[C@@H](CCC(N)=O)C(=O)N[C@@H](CCCCN)C(=O)N[C@@H](CCCCN)C(=O)N[C@@H](CCCCN)C(=O)N[C@@H](CCC(=O)O)C(=O)N[C@@H](Cc1c[nH]c2ccccc12)C(N)=O` [compound 5] (H-CDATCQYRKGLVACARQAYHSSVFKACMKQKKKEW-NH2; disulfide 1-5, 14-27), the IC50 against rat PAC1 receptor and against human PAC1 receptor was 1 to 100 nM in each case.
As for “CDATCQFRKAIDDCVWKAFHANVPGSVFKACMKQKKKEFKAG-NH2 (disulfide 1-5, 14-31) [compound 118]”, the IC50 against rat PAC1 receptor and at human PAC1 receptor was 0.01 to 1 nM each time.
Consider “CDATCQFRKAIDDCYWQAIHANVPGSVWKACMKFRFNVWKAG-NH2 (disulfide 1-5, 14-31) [compound 54]”, for which the IC50 on rat PAC1 receptor fell in the range of 0.01 to 1 nM; at human PAC1 receptor, 1 to 100 nM.
